Experimental data taken from patent publication EP2050747A1, “Dimers of harmol or of its derivatives and uses thereof” (BioAlliance Pharma, priority 2007, dated 2009).

Legend:
F-actin = test: Actin dynamics, fluorescence anisotropy assay in tumor cell cytosolic fraction; format: biochemical; parameters: Kobs: unit not given beside the values; settings: for Kobs: rate constant of F-actin elongation; for actin polymerisation kinetics compared with normal NIH 3T3 cytosolic fraction: tumoral NIH 3T3 EF cytosolic fraction; for F actin steady state value (Δ mA max), effect in words / F actin elongation rate constant (Kobs), effect in words: added to assay medium, versus untreated; for F actin steady state value (Δ mA max), effect in words: NIH 3T3 EF cytosolic fraction or lysate, harmol at 10 µM
Protocol: Actin dynamics have been quantified in tumor cell cytosolic fraction using the fluorescence anisotropy assay which gains access to rate constant of F-actin elongation (kobs) and steady state concentration of F-actin (Δ mA max).
All reactions were carried out at 22°C and fluorescence anisotropy signal was recovered at 520 nm with excitation at 490 nm in a Beacon 2000 (Panvera). Alexa 488 actin (Molecular Probes) was centrifuged at 35 000 rpm for 2 h at 4°C to sediment residual actin polymers in a Beckman L5-50B ultracentrifuge. […] 80% of the supernatant was withdrawn; the concentration was defined through fluorescence measurements (excitation at 490 nm and signal recovering at 520 nm). The ultracentrifuged actin concentration was calculated using the non ultracentrifuged Alexa 488 actin as a standard. The supernatant was aliquoted, frozen in liquid nitrogen and stored at -80°C.
Before experiment, an aliquot of ultracentrifuged Alexa 488 actin was diluted to a concentration of 1 mg/ml in G buffer (5 mM Tris pH 8.1, 2 mM CaCl2, 0.2 mM DTT, 0.2 mM ATP). 3 µl of diluted Alexa 488 actin was mixed in 168 µl of G buffer and actin monomers anisotropy was measured before the addition of 4 µl of polymerisation buffer (2.5 M KCI, 50 mM MgCl2, 25 mM ATP), 5 µl of G buffer in the presence or in the absence of the chemical molecule and 20 µl cellular extract of normal NIH 3T3 cells or malignant NIH 3T3 EF cells at 2 mg/ml. The final concentration of Alexa 488 actin was 4 nM. The ratio of unlabelled to labelled actin was about 140/4 nM. Measurements were made each 10 sec for 200 sec. Actin monomers anisotropy value was subtracted, yielding the anisotropy enhancement (Δ mA). The data were fitted with the equation Y= Ymax . [1- exp(- K.X)]. The curves start at zero and ascend to Ymax that corresponds to the steady state anisotropy value (Δ mA eq), with a rate constant K. Y is anisotropy values of which monomers anisotropy is substracted and X is the time (Assessment of cellular actin dynamics by measurement of fluorescence anisotropy. Anal Biochem. 2007 Aug 1;367(1):95-103. Epub 2007 Apr 5. Spitz et al.).

NIH 3T3 EF [1] = test: MTT assay (cellular viability); format: cell-based; settings: Mus musculus, NIH3T3, 72 h, 3 days
Protocol: (§1) Growth studies were performed using the [3-(4,5 dimethylthiazol-2-yl)-2,5-diphenyl-2H-tetrazolium bromide] (Sigma) colorimetric assay.
(§2) About 1500 cells were seeded in a 96-well culture plate 24 hours before adding increasing concentrations of tested molecule. The plate was incubated at 37°C for 3 days. 10 µl MTT stock solution (5 mg/ml in phosphate buffer saline) was added to 90 µl of complete medium in each well, the incubation was continued for 3 h at 37°C. 100 µl of lysis buffer (10 % sodium dodecyl sulfate, 1% HCl 1N; pH 4.7) was added to each well, and the plate was incubated overnight. The absorbance was determined using an Integrated EIA Management System (Labsystem) at a wavelength of 570 nm. The proliferation rates were calculated from the OD readings using the untreated cells as 100%.

B16F10 [2] = test: MTT assay (cellular viability); format: cell-based, Murine; settings: for IC50: Mus musculus, B16-F10, 72 h, B16F10, 3 days
Protocol: as §1, §2

NIH 3T3 EF [3] = test: Cloning assay, colony formation in semi solid medium (methylcellulose); format: cell-based; settings: for inhibitory activity on NIH 3T3 EF colony formation in methylcellulose semi-solid medium: Figure 2; for IC50: Mus musculus, NIH3T3, 504 h, NIH 3T3 EF, 3 weeks, read-out: Inhibition of colony formation (methylcellulose) IC50
Protocol: (§3) Cells were embedded in complete culture medium supplemented with 0,8% methylcellulose (Methocel MC4000, Sigma), seeded in triplicate into 35-mm dishes (Greiner Bio-one Ref 627102, Dominique Dutscher) and incubated at 37 °C in a humidified 5% CO2 atmosphere.
(§4) The number of cells seeded was 1000 cells per dish. After one week (B16F10 cell line) to 3 weeks (NIH 3T3 EF cell line), macroscopic clones were counted.

B16F10 [4] = test: as above; format: cell-based, Murine; settings: for IC50: Mus musculus, B16-F10, 168 h, B16F10, one week, read-out: Inhibition of colony formation (methylcellulose) IC50
Protocol: as §3, §4

NIH 3T3 EF cells = test: Rescue of F-actin network, FITC-phalloidin fluorescence microscopy; format: cell-based; settings: non cytotoxic concentration (100 nM), three days, Figure 4
Protocol: Malignant NIH 3T3 EF cells were seeded onto glass cover slips at a density of 2000 cells per cm^2. The next day, tested molecules were applied to NIH 3T3 EF cells at various non cytotoxic concentrations. Three days later, cells were fixed for 10 min in PBS containing 3.7 % formaldehyde at 4°C before examination with a fluorescence microscope. The formaldehyde solution was neutralized with 50 mM NH4Cl. Permeabilisation was carried out for 4 min with 0.4% Triton X-100 in PBS. Cells were incubated for 1 h at room temperature with blocking buffer (3% bovine serum albumin in PBS) and then for 1 h with FITC-phalloidin (Sigma) which stabilizes structures by inhibiting phosphate release from ADP-Pi-actin filaments and allows visualization of actin filaments by fluorescence microscopy. The cover slips were mounted on microscope slides using a solution of glycerol 50%, DABCO 2.5% in PBS as embedding medium.

[5] = system: malignant NIH 3T3 EF cells; test: Wound healing assay (cell motility); format: cell-based; settings: NIH 3T3 EF, non cytotoxic concentration (25-100 nM), 10 h after wound formation, Figure 5
Protocol: (§5) Harmol dimers have been tested in a cell motility assay: the behaviour of tumoral cells treated by these dimers was compared with non-treated tumoral cells in a wound healing assay. Wound healing assay was performed to evaluate the effect of tested molecules on motility of malignant NIH 3T3 EF cells and melanoma cell line B16F10. About 100 000-200 000 cells were seeded in a 6-well culture plate and the tested molecule was added 24 hours later. Cells were grown for 3 days to confluence about 90-95% and small scratch-wounds (1 mm width) were made with a pipette tip. Cell debris were removed, then the cultures were incubated in complete medium for 10 h in the presence of the same concentration of the tested molecule. Then, the cells were fixed for 10 min in PBS containing 3.7% formaldehyde at 4°C.

[6] = system: melanoma cell line B16F10; test: Wound healing assay (cell motility); format: cell-based, Murine; settings: B16F10, non cytotoxic concentration (25-100 nM), 24 h after wound formation, Figure 6
Protocol: as §5, with “Cell debris were removed, then the cultures were incubated in complete medium for 10 h in the presence of the same concentration of the tested molecule.” left out

B16F10 tumor = test: In vivo tumorigenicity assay, subcutaneous B16F10 tumor growth; parameters: species or system C57BU6 mice
Protocol: Female 6-8 week-old C57BU6 mice were provided by Harlan (Gannat, France).
Animals were housed in air-conditioned atmosphere, given food and water in standard conditions. One million B16F10 cells in 0.1 ml PBS were injected subcutaneously into the right flank of mice. Seven days after cells inoculation, it was possible to measure tumor volume (day 0). Thereafter, before drug administration, female C57BU6 mice were randomized to form 2 groups. […]
B16F10 tumor development was monitored for 2 weeks. The tumor size was estimated every fourth day by measuring the diameters of the tumors in two perpendicular dimensions using callipers. The volume of tumor (V) was calculated using the formula, V = 2W(U2)2 , where L and W were respectively the length and the width of tumor.
In vivo tumorigenicity assay was studied with harmine. […] In parallel, control mice were treated by one daily oral route administration of the vehicle.

[7] = 10 µM, NIH 3T3 EF extract, steady state concentration of F-actin (anisotropy enhancement)

Compound	Kobs (F-actin; 10 µM, NIH 3T3 EF extract)	Δ mA max (F-actin; [7])	actin polymerisation kinetics compared with normal NIH 3T3 cytosolic fraction (F-actin; 10 µM)	F actin steady state value (Δ mA max), effect in words (F-actin)	F actin elongation rate constant (Kobs), effect in words (F-actin; NIH 3T3 EF cytosolic fraction)	IC50 (NIH 3T3 EF [1])	IC50 (B16F10 [2])	inhibitory activity on NIH 3T3 EF colony formation in methylcellulose semi-solid medium (NIH 3T3 EF [3])	IC50 (NIH 3T3 EF [3])	inhibitory activity on B16F10 colony formation in methylcellulose semi-solid medium (B16F10 [4]; Figure 3)	IC50 (B16F10 [4])	reorganisation of the actin network in tumor cells (NIH 3T3 EF cells)	inhibition of malignant cell motility [5]	inhibition of malignant cell motility [6]	other results
Cc1nccc2c1[nH]c1cc(OCCCCCOc3ccc4c(c3)[nH]c3c(C)nccc34)ccc12 [BA016DD1172, 7,7'-[Pentane-1,5-diylbis(oxy)]bis(1-methyl-9H-β-carboline)]	0,179	62	similar	increased	increased	300 nM	400 nM	marked inhibitory activity	50 nM	marked inhibitory activity	30 nM	able to reorganise the actin network	inhibited	inhibited	antitumor activity against B16 melanoma (B16F10 tumor; daily per os 100 mg/kg for five days, Figure 7): marked antitumor activity; tumoral growth inhibition (B16F10 tumor; day 7, daily per os 100 mg/kg for five days, versus control group, p = 0,0020): 48,5%
Cc1nccc2c1[nH]c1cc(OCC3OC(C)(C)OC3COc3ccc4c(c3)[nH]c3c(C)nccc34)ccc12 (stereo not drawn) [BA016DD1183, 7,7'-[(2,2-dimethyl-1,3-dioxolane-4,5-diyl)bis(methyleneoxy)]bis(1-methyl-9H-β-carboline)]	0,158	61	similar	increased	increased	1000 nM	750 nM	marked inhibitory activity	300 nM	marked inhibitory activity	125 nM	able to reorganise the actin network	inhibited	inhibited	–
COc1ccc2c3ccnc(C)c3n(CCCCCn3c4cc(OC)ccc4c4ccnc(C)c43)c2c1 [BA016FZ518, 9,9'-pentane-1,5-diylbis(7-methoxy-1-methyl-9H-β-carboline)]	0,104	59	similar	increased	increased	750 nM	3000 nM	marked inhibitory activity	250 nM	marked inhibitory activity	40 nM	able to reorganise the actin network	inhibited	inhibited	–
Cc1nccc2c1[nH]c1cc(OCCCOc3ccc4c(c3)[nH]c3c(C)nccc34)ccc12 [BA016FZ527, 7,7'-[Propane-1,3-diylbis(oxy)]bis(1-methyl-9H-β-carboline)]	0,132	83	–	increased	increased	1000 nM	1500 nM	marked inhibitory activity	500 nM	marked inhibitory activity	175 nM	able to reorganise the actin network	inhibited	inhibited	F actin steady state value compared with NIH 3T3 cytosolic fraction (F-actin; 10 µM, NIH 3T3 EF cytosolic fraction): higher; F actin elongation rate constant compared with NIH 3T3 cytosolic fraction (F-actin; NIH 3T3 EF cytosolic fraction, BA016FZ527 at 10 µM, harmine concentration not given): higher
Cc1nccc2c1[nH]c1cc(O)ccc12 [harmol]	–	–	–	No increase	–	–	–	–	–	–	–	–	–	–	Δ mA max (F-actin; 10 µM, tumoral NIH3T3 EF cellular lysate): 42 mA; cytotoxicity as measured by MTT test (B16F10 [2]; at 3 µM): non-cytotoxic concentration; inhibitory activity on B16F10 colony formation in methylcellulose semi-solid medium (B16F10 [4]; at 3 µM): did not display an inhibitory activity
